# Assay results from patent US8268990B2, “Compounds” (AstraZeneca AB, priority 2007, dated 2012).
# Biological target: T1, Recombinant human TLR7 (Homo sapiens, UniProt Q9NYK1)
# T1 construct: expressed in transfected cells; host or cells: HEK293 cell line stably expressing the pNiFty2-SEAP reporter plasmid; TLR7 in vector pUNO, blasticidin selection
# T1 sequence (Q9NYK1 27-1049): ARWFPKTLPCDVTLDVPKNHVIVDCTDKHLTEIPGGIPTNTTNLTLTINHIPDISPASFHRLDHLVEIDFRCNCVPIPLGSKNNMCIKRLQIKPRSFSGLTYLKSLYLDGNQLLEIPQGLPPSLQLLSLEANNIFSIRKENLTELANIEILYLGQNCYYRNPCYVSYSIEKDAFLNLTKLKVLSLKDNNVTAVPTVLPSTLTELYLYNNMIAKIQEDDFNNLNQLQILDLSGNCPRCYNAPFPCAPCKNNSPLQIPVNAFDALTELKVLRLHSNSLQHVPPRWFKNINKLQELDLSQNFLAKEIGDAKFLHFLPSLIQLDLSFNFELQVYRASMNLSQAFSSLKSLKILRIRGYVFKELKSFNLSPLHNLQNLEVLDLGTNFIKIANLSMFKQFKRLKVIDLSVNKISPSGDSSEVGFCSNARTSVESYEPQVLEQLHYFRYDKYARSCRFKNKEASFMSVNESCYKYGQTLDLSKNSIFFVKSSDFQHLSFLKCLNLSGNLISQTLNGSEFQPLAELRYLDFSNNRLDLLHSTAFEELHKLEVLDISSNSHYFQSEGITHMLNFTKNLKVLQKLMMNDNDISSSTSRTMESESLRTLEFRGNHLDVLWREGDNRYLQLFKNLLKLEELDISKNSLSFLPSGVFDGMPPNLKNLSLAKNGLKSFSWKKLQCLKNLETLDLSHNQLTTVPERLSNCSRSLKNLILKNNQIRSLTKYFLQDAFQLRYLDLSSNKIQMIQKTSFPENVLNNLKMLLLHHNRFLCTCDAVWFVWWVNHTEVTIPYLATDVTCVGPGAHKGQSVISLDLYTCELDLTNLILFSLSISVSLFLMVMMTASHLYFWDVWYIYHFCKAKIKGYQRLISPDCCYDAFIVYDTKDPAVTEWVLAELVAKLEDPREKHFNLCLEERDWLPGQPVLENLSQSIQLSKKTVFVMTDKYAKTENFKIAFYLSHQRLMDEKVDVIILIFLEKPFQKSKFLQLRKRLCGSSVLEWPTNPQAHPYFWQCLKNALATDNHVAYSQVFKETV
# Assay: Human TLR7 Assay (SEAP reporter);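 also: SEAP driven by an NFkB-responsive composite promoter, pEC50 read at half of each compound's own maximal SEAP induction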
# Type: cell-based
# Conditions: HEK293 cell line stably expressing human TLR7 and pNiFty2-SEAP reporter; SEAP induction after overnight incubation at 37° C., 0.1% (v/v) DMSO
# Description: Recombinant human TLR7 was stably expressed in a HEK293 cell line already stably expressing the pNiFty2-SEAP reporter plasmid; integration of the reporter gene was maintained by selection with the antibiotic zeocin. The most common variant sequence of human TLR7 (represented by the EMBL sequence AF240467) was cloned into the mammalian cell expression vector pUNO and transfected into this reporter cell-line. Transfectants with stable expression were selected using the antibiotic blasticidin. In this reporter cell-line, expression of secreted alkaline phosphatase (SEAP) is controlled by an NFkB/ELAM-1 composite promoter comprising five NFkB sites combined with the proximal ELAM-1 promoter. TLR signaling leads to the translocation of NFkB and activation of the promoter results in expression of the SEAP gene. TLR7-specific activation was assessed by determining the level of SEAP produced following overnight incubation of the cells at 37° C. with the standard compound in the presence of 0.1% (v/v) dimethylsulfoxide (DMSO). Concentration dependent induction of SEAP production by compounds was expressed as the concentration of compound which produced half of the maximal level of SEAP induction for that compound (pEC50).
row,EC50 [nM],SMILES
1,501,"CCCCCNc1nc(N)nc(C)c1CCCNCc1cccc(CC(=O)OC)c1 [Example 1, Methyl 2-(3-((3-(2-Amino-4-methyl-6-(pentylamino)pyrimidin-5-yl)propylamino)methyl)phenyl)acetate]"
2,1000,"CCCCCNc1nc(N)nc(C)c1CCCNCc1ccc(CC(=O)OC)cc1 [Example 2, Methyl 2-(4-((3-(2-amino-4-methyl-6-(pentylamino)pyrimidin-5-yl)propylamino)methyl)phenyl)acetate]"
3,631,"CCCCCNc1nc(N)nc(C)c1CCCN(Cc1cccc(CC(=O)OC)c1)C(=O)CN(C)C [Example 3, Methyl 2-(3-((N-(3-(2-amino-4-methyl-6-(pentylamino)pyrimidin-5-yl)propyl)-2-(dimethylamino)acetamido)methyl)phenyl)acetate]"
4,398,"CCCCCNc1nc(N)nc(C)c1CCCN(Cc1ccc(CC(=O)OC)cc1)C(=O)CN(C)C [Example 4, Methyl 2-(4-((N-(3-(2-amino-4-methyl-6-(pentylamino)pyrimidin-5-yl)propyl)-2-(dimethylamino)acetamido)methyl)phenyl)acetate]"
5,631,"CCCCCNc1nc(N)nc(C)c1CCCN(Cc1cccc(CC(=O)OC)c1)C(=O)CN1CCC[C@H]1C(=O)OC [Example 5, (S)-Methyl 1-(2-((3-(2-amino-4-methyl-6-(pentylamino)pyrimidin-5-yl)propyl)(3-(2-methoxy-2-oxoethyl)benzyl)amino)-2-oxoethyl)pyrrolidine-2-carboxylate]"
6,2510,"CCCCCNc1nc(N)nc(C)c1CCCN(Cc1cccc(CC(=O)OC)c1)C(=O)CN1CCC(O)CC1 [Example 7, Methyl 2-(3-((N-(3-(2-amino-4-methyl-6-(pentylamino)pyrimidin-5-yl)propyl)-2-(4-hydroxypiperidin-1-yl)acetamido)methyl)phenyl)acetate]"
7,2510,"CCCCCNc1nc(N)nc(C)c1CCCN(Cc1cccc(CC(=O)OC)c1)C(=O)CN1CCCN(C(C)=O)CC1 [Example 8, Methyl 2-(3-((2-(4-acetyl-1,4-diazepan-1-yl)-N-(3-(2-amino-4-methyl-6-(pentylamino)pyrimidin-5-yl)propyl)acetamido)methyl)phenyl)acetate]"
8,3980,"CCCCCNc1nc(N)nc(C)c1CCCN(Cc1cccc(CC(=O)OC)c1)C(=O)CN1CCN(CCCN(C)C)CC1 [Example 9, Methyl 2-(3-((N-(3-(2-amino-4-methyl-6-(pentylamino)pyrimidin-5-yl)propyl)-2-(4-(3-(dimethylamino)propyl)piperazin-1-yl)acetamido)methyl)phenyl)acetate]"
9,1580,CCCCCNc1nc(N)nc(C)c1CCCN(Cc1cccc(CC(=O)OC)c1)C(=O)CN(C)CCO [Example 10]
10,1000,"CCCCCNc1nc(N)nc(C)c1CCCN(Cc1cccc(CC(=O)OC)c1)C(=O)CCC(=O)OC [Example 11, Methyl 4-((3-(2-amino-4-methyl-6-(pentylamino)pyrimidin-5-yl)propyl)(3-(2-methoxy-2-oxoethyl)benzyl)amino)-4-oxobutanoate]"
11,1580,"CCCCCNc1nc(N)nc(C)c1CCCN(Cc1cccc(CC(=O)OC)c1)C(=O)CCCN(C)C [Example 12, Methyl 2-(3-((N-(3-(2-amino-4-methyl-6-(pentylamino)pyrimidin-5-yl)propyl)-4-(dimethylamino)butanamido)methyl)phenyl)acetate]"
12,2510,"CCCCCNc1nc(N)nc(C)c1CCCN(Cc1cccc(CC(=O)OC)c1)S(C)(=O)=O [Example 13, Methyl 2-(3-((N-(3-(2-amino-4-methyl-6-(pentylamino)pyrimidin-5-yl)propyl)methylsulfonamido)methyl)phenyl)acetate]"
13,1260,"CCCCCNc1nc(N)nc(C)c1CCCN(Cc1cccc(CC(=O)OC)c1)S(=O)(=O)c1cn(C)cn1 [Example 14, Methyl 2-(3-((N-(3-(2-amino-4-methyl-6-(pentylamino)pyrimidin-5-yl)propyl)-1-methyl-1H-imidazole-4-sulfonamido)methyl)phenyl)acetate]"
